Structures are written as SMILES.

Common to all, as to type: in vivo
For experiment [1], the system named is velvetleaf (Abutilon theophrasti Medik.) (VL). Nature of the experiment: Preemergence herbicide test, soil drench, velvetleaf. To be noted: Abutilon theophrasti, 336 h, 10 lbs/A (11.2 kg/ha) soil drench, two weeks after treatment, vs untreated checks, read-out: Percent Weed Control VL. A digest of the protocol:
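Compound in acetone/ethoxylated sorbitan monolaurate, diluted to 250 ppm in water, was drenched onto the soil surface of pots sown with velvetleaf at 10 lb/acre (11.2 kg/ha). Percent control versus untreated checks was rated two weeks after treatment.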

Experiment [2] relates to prickly sida (Sida spinosa L.) (PS). In words: Preemergence herbicide test, soil drench, prickly sida. To be noted: Sida spinosa, 336 h, 10 lbs/A (11.2 kg/ha) soil drench, two weeks after treatment, vs untreated checks, read-out: Percent Weed Control PS.
For experiment [3], the system named is barnyardgrass (Echinochloa crus-galli (L.) Beauv.) (BG). Nature of the experiment: Preemergence herbicide test, soil drench, barnyardgrass. Conditions: Echinochloa crus-galli, 336 h, 10 lbs/A (11.2 kg/ha) soil drench, two weeks after treatment, vs untreated checks, read-out: Percent Weed Control BG. The gist of the method: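 Compound formulated in acetone with ethoxylated sorbitan monolaurate, diluted to 250 ppm and drenched onto soil surface of seeded pots at 10 pounds/acre (11.2 kg/ha), preemergence. Percent weed control versus untreated checks scored two weeks after treatment.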

The test system of experiment [4] is green foxtail (Setaria virdis (L.) Beauv.) (GF). Nature of the experiment: Preemergence herbicide test, soil drench, green foxtail. To be noted: Setaria, 336 h, 10 lbs/A (11.2 kg/ha) soil drench, two weeks after treatment, vs untreated checks, read-out: Percent Weed Control GF. The gist of the method: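 Compound in acetone/water with ethoxylated sorbitan monolaurate emulsifier, applied as 250 ppm soil drench at 10 lb/acre (11.2 kg/ha) to pots sown with green foxtail seed. Percent weed control versus untreated checks rated two weeks after treatment.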

Experiment [5] concerns switchgrass (Panicum virgahim L.) (SG). In words: Postemergence herbicide test, foliar spray, switchgrass. Conditions: 3000 ppm foliar spray to drip point, treated six days after emergence, two weeks after treatment. The procedure:
(§1) To illustrate the effectiveness of the previously described substituted oxadiazines of this invention as preemergence herbicides, 300 mg of the chemical was dissolved in a composition comprising 10 mL acetone to which 30 mg of tile emulsifying agent, ethoxylated sorbitan monolaurate, was added. The solution was diluted to 100 mL with distilled water. Ten milliliters of this 3000 ppm solution was diluted to 250 ppm with distilled water. The chemical was applied at the rate of 10 pounds/acre (11.2 kg/ha) by drenchings 46 mL of the 250 ppm solution on the surface of soil in 41⁄2 inch (11.25 cm) plastic pots wherein seeds of the following weeds had been planted: switchgrass (Panicum […].) (SG), To illustrate the effectiveness of the described substituted oxadiazines as postemergence herbicides, the 3000 ppm solution described under Example 5 was atomized with a conventional DeVilbissTM sprayer, wetting the foliage to the drip point. The weeds, which were the same species as described in Example 5, were treated six days after emergence. The percent weed control was evaluated two weeks after treatment.

Experiment [6] concerns green foxtail (Setaria virdis (L.) Beauv.) (GF). In words: Postemergence herbicide test, foliar spray, green foxtail. To be noted: 3000 ppm foliar spray to drip point, treated six days after emergence, two weeks after treatment. The procedure: as §1, with “green foxtail (Setaria” for “switchgrass (Panicum”, “Beauv.) (GF).” for “(SG),”

In the case of `FC(F)(F)C1=NC(C(F)(F)F)(C(F)(F)F)N=C(c2cccc(Cl)c2)O1` [Compound 4, 2-(3-chlorophenyl)-4,4,6-tris(trifluoromethyl)-4H-1,3,5-oxadiazine], the pest or weed control at 11208.5 g/ha in experiment [1], in experiment [2], in experiment [3] and in experiment [4] was 100% throughout. The “Percent Weed Control SG” value in experiment [5] is on record as 80%. In addition, the “Percent Weed Control GF” value in experiment [6] stood at 100%.

Consider `FC(F)(F)C(F)(F)C1=NC(C(F)(F)F)(C(F)(F)F)N=C(c2cccc(Cl)c2)O1` [Compound 13, 2-(3-chlorophenyl)-6-(pentafluoroethyl)-4,4-bis(trifluoromethyl)-4H-1,3,5-oxadiazine], for which the pest or weed control at 11208.5 g/ha in experiment [1], in experiment [2], in experiment [3] and in experiment [4] was 100% each time. In experiment [5], the “Percent Weed Control SG” value stood at 90%. For the same compound, the “Percent Weed Control GF” value in experiment [6] is on record as 100%.

Take `Fc1ccc(C2=NC(C(F)(F)F)(C(F)(F)F)N=C(C(F)(F)C(F)(F)F)O2)cc1Cl` [Compound 20, 2-(3-chloro-4-fluorophenyl)-6-(pentafluoroethyl)-4,4-bis(trifluoromethyl)-4H-1,3,5-oxadiazine]: the pest or weed control at 11208.5 g/ha in experiment [1], in experiment [2], in experiment [3] and in experiment [4] was 100% throughout. The “Percent Weed Control SG” value in experiment [5] is 30%. Moreover, the “Percent Weed Control GF” value in experiment [6] turned out to be 0%.

For the compound `FC(F)(F)C(F)(F)C1=NC(C(F)(F)F)(C(F)(F)F)N=C(c2ccc(Cl)cc2)O1` [Compound 24, 2-(4-chlorophenyl)-6-(pentafluoroethyl)-4,4-bis(trifluoromethyl)-4H-1,3,5-oxadiazine], the pest or weed control at 11208.5 g/ha in experiment [1] amounted to 100%; in experiment [2], 100%; in experiment [3] it was 90%; in experiment [4], 100%. In addition, the “Percent Weed Control SG” value in experiment [5] came out at 20%. The “Percent Weed Control GF” value in experiment [6] was 0%.

As for `FC(F)(F)C(F)(F)C1=NC(C(F)(F)F)(C(F)(F)F)N=C(c2ccc(Br)cc2)O1` [Compound 25, 2-(4-bromophenyl)-6-(pentafluoroethyl)-4,4-bis(trifluoromethyl)-4H-1,3,5-oxadiazine], the pest or weed control at 11208.5 g/ha in experiment [1] is 100%; in experiment [2] it was 100%; in experiment [3], 90%; in experiment [4], 100%. The “Percent Weed Control SG” value in experiment [5] was 0%. In addition, the “Percent Weed Control GF” value in experiment [6] was determined as 30%.

Source of the values: US6514911B1, “Substituted oxadiazines useful as pesticides” (Uniroyal Chemical Company, Inc., priority 2002, dated 2003).
